Source: patent US20080214504A1, “Vitamin B6 Related Compounds and Methods for Recovery From Trauma” (MEDICURE INTERNATIONAL INC., priority 2004, published 2008)

System: patients scheduled for elective percutaneous coronary intervention (PCI) with high-risk features for periprocedural myocardial infarction
Assay: Randomized placebo-controlled study of P5P in patients undergoing elective PCI: recovery, length of hospitalization, time to discharge
Format: in vivo, human
Text: Selection of Study Population—The patients selected for this trial were patients scheduled for elective percutaneous coronary intervention (PCI) with high-risk features for periprocedural myocardial infarction, and who satisfied specific inclusion criteria as described in the next section. Patients to be included in this study were of either sex, >18 years of age and admitted to hospital for elective, single-vessel, non-urgent PCI. Patients must have presented with at least one of the following high-risk clinical criteria: • ACS with last chest pain episode (or ischemic equivalent) within 48 hours, • recent myocardial infarction (≦7 days) with return of cardiac markers, (CK, CK-MB, and troponin) to below upper normal limits, • angiographic evidence of reduced epicardial flow (TIMI<3), • angiographic evidence of thrombus, • left ventricular ejection fraction≦30%, or • saphenous vein graft lesion.
The following patients were not eligible for inclusion into the study: • Those having suffered a recent myocardial infarction with elevated cardiac markers (CK-MB, troponin T), that have not returned to below upper limits or normal; • Those with electrocardiographic evidence of left bundle branch block (LBBB), ventricular paced rhythm, or atrial fibrillation; • Those with a planned multivessel PCI or PCI of known total occlusion (TIMI grade 0); • Those with evidence of ongoing or active clinical instability including; sustained systolic blood pressure<90 mmHg, cardiogenic shock, acute pulmonary edema or severe congestive heart failure, suspected acute myocarditis, pericarditis, endocarditis, cardiac tamponade, suspected dissecting aortic aneurysm, hemodynamically significant valvular heart disease, hypertrophic cardiomyopathy, restrictive cardiomyopathy, or congenital heart disease; • Any contraindication to the PCI procedure or any of the standard concomitant therapies used during routine PCI (e.g. aspirin, clopidogrel, heparin, low molecular weight heparin, direct antithrombin inhibitors, platelet glycoprotein IIb/IIIa antagonists); • Patients who were currently enrolled in a clinical trial of an investigational drug or who have participated in a clinical trial for an investigational drug (a new chemical entity not registered for clinical use) within 30 days preceding entry into the study or who are due to enter such a trial during the study period; • Patients with clinically significant abnormal laboratory findings (within 2 weeks prior to PCI) including: ALT, AST, bilirubin, or Alk Phos>1.5×ULN, Serum creatinine>1.8 mg/dL or 159 μmol/L; • Patients with any other pathology such as cancer, mental illness etc., which in the opinion of the investigator, might put the patient at risk or confound the results of the trial; • Female patients who are pregnant, breast feeding or planning a pregnancy during the course of the study; and • Patients who are unable or unwilling to comply with the protocol or who are not expected to complete the study period.
Treatments Administered—Following baseline laboratory assessments, patients were randomized to placebo or P5P (a vitamin B6 related compound), administered as a 10 mg/kg oral dose, at least (4) hours prior to PCI, followed by 10 mg/kg orally divided in two daily doses for fourteen (14) days. If PCI was delayed for more than 12 hours after initial dosing, they continued with scheduled BID dosing. If the initial loading dose was administered prior to or at 12:00 PM on day 1 of randomization, then the patient received a second evening dose. If the initial loading dose was administered following 12:00 PM, then no further dosing was administered on day 1, and the patient was to begin the next dose in the morning of day 2. If a dose was missed for more than 24 hours, patients were to continue to take the study drug as scheduled without taking supplemental doses. The date, time and dosing of the first and last study drug dosing was recorded in the CRF. […]

[1] = P5P 10 mg/kg oral, N = 37 (3 missing)

Which “Time in hospital relative to placebo” value (3.3 days versus 7.0 days for placebo) does the source give for Cc1ncc(COP(=O)(O)O)c(C=O)c1O [P5P, pyridoxal-5′-phosphate] here?
The value was “half as long”.

What about the “Length of hospitalization, Median (25th, 75th)” value (P5P 10 mg/kg oral at least 4 h prior to PCI, then 10 mg/kg/day for 14 days, N = 40) of the same molecule?
Its value is 1.0 (1.0, 3.0) days.

And the “Length of hospitalization, Mean (S.D.)” value (P5P 10 mg/kg oral at least 4 h prior to PCI, then 10 mg/kg/day in two daily doses for 14 days, N = 40)?
Its value is 3.3 (5.5) days.

What about the “Time to discharge from initiation of PCI, Maximum” value (P5P 10 mg/kg oral, N = 37) of the same molecule?
Its value is 34.0 days.

What about the “Time to discharge from initiation of PCI, Minimum” value (P5P 10 mg/kg oral, N = 37) of the same molecule?
Its value is 1.0 days.

What about the “Time to discharge from initiation of PCI, Mean (S.D)” value [1] of the same molecule?
The value was 1.9 (5.4) days.

What about the “Time to discharge from initiation of PCI, Medium (25th, 75th)” value [1] of the same molecule?
The value was 1.0 (1.0, 1.0) days.

And the “Length of hospitalization, Maximum” value (P5P 10 mg/kg oral, N = 40)?
The value was 34.0 days.

And the “Length of hospitalization, Minimum” value (P5P 10 mg/kg oral, N = 40)?
The value was 0.0 days.

And the “Number of days from initiation of PCI to discharge from hospital, shorter versus placebo” value (P5P versus placebo)?
Its value is 74%.

And the Time in hospital (placebo 7.0 days)?
Its Time in hospital is 3.3 days.
